Test results: patent US7691883B2, “Cinnamoyl compound and use of the same” (Sumitomo Chemical Company, Limited, priority 2003, dated 2010)

Assay: Ability of a test compound to regulate transcription of a Type I collagen gene using the expression level of a reporter gene (COL-Luc luciferase) as an index
Type: cell-based
Settings: final concentration 1 μM; normal human fetal skin fibroblast transfected with COL-Luc; TGF-β, 40 hours; read-out: inhibition percentage (inhibitory effect on the ability of TGF-β to promote transcription of a Type I collagen gene)
Procedure: 1×10^8 cells of a normal human fetal skin fibroblast (Clontech, catalogue No. CC-2509) were cultured at 37° C. overnight under 5% CO2 atmosphere. After the cultured cells were washed with a sodium phosphate buffer (hereinafter, referred to as PBS) twice, 3 ml of PBS was added thereto and the cells were scraped away the wall of a vessel using a cell scraper (Nalgen, catalogue No. 179693). The scraped cells were collected by centrifugation (1,500 rpm, 4° C., 15 min), and these were suspended in 20 ml of PBS and centrifuged again. To the resulting precipitates were added 11 ml of Solution 2 and 4.8 μl of pronase of DNA Extraction Kit (Stratagene, catalogue No. 200600). After shaken at 60° C. for 1 hour, the resulting mixture was allowed to stand in ice for 10 minutes. Then, 4 ml of Solution 3 of the kit was added to the mixture. After mixed, the mixture was allowed to stand in ice for 5 minutes and then centrifuged (3,000 rpm, 4° C., 15 min) to recover a supernatant. To the recovered supernatant was added 2 μl of RNase per 1 ml of the supernatant and the mixture was allowed to stand at 37° C. for 15 minutes. To the mixture was added 2-fold volume of ethanol. After mixed, a white thread-like substance (genomic DNA) appeared and the substance was recovered. The recovered genomic DNA washed with 70% ethanol and then air-dried. The air-dried genomic DNA was dissolved in 500 μl of 10 mM Tris-HCl, 1 mM EDTA (pH 8.0) (hereinafter, referred to as TE).
The resulting genomic DNA solution (the amount equivalent to 1 μg of genomic DNA), each 1 μl (10 pmol/μl) of an oligonucleotide consisting of the nucleotide sequence represented by SEQ ID No:1 and an oligonucleotide consisting of the nucleotide sequence represented by SEQ ID No:2, 29 μL of distilled water, 5 μl of the buffer attached to TaKaRa LA Taq (TAKARA SHUZO, catalogue No. RR002A), 5 μL of a Mg^2+ solution, 5 μL of a dNTP mixture and 0.5 μl of TaKaRa LA Taq (TAKARA SHUZO, catalogue No. RR002A) were mixed. After the resulting mixed solution was incubated at 94° C. for 5 minutes, the mixed solution was subjected to 30 cycles, in which one cycle consists of incubation at 94° C. for 1 minute, at 60° C. for 1 minute and then at 72° C. for 1 minute. The mixed solution was electrophoresed on a 2% agarose gel to recover about 0.5 kb of a DNA. The recovered DNA was treated with phenol/chloroform and then precipitated with ethanol to recover the DNA. The resulting DNA was dissolved in ultrapure water. To this solution were added 2.5 μl of NheI and 2.5 μl of HindIII, and then incubated at 37° C. for 3 hours. Then, the solution was electrophoresed on a 2% agarose gel to recover about 3.5 kb of a DNA. The recovered DNA was precipitated with ethanol to recover again the DNA (hereinafter, referred to as the collagen promoter DNA).
On the other hand, the vector pGL3 (Promega, catalogue No. E1751) having the nucleotide sequence encoding firefly luciferase was digested with NheI and HindIII, and then subjected to agarose gel electrophoresis as described above to recover about 5 kb of a DNA. The recovered DNA was precipitated with ethanol to recover the DNA again. To the recovered DNA were added 44 μl of distilled water, 5 μl of Buffer attached to Alkaline Phosphatase (TAKARA SHUZO, catalogue No. 2120A) and 1 μl of Alkaline Phosphatase (TAKARA SHUZO, catalogue No. 2120A). The mixed solution was incubated at 65° C. for 30 minutes. Then, the mixed solution was treated with phenol/chloroform twice, and precipitated with ethanol to recover the DNA (hereinafter referred to as the Luc vector DNA). Then, after about 20 ng of the collagen promoter DNA and about 20 ng of the Luc vector DNA were mixed, the same amount of a DNA Ligation kit Ver2 enzyme solution was added and this was incubated overnight at 16° C. To the mixed solution was added Escherichia coli 5Hdα (TOYOBO, catalogue No. DNA-903), this was allowed to stand in ice for 30 minutes, and then incubated at 42° C. for 45 seconds. […]

Row | SMILES | inhibition at 1 µM [%]
1 | C=CCOc1cccc(C=CC(=O)c2c(OCC=C)cc(C)oc2=O)c1 [(1b), 4-allyloxy-3-[3-(3-allyloxyphenyl)-1-oxo-2-propenyl]-6-methyl-2H-pyran-2-one] | ≥ 70
2 | COc1cc(C)oc(=O)c1C(=O)C=Cc1cccc(C=CC#N)c1 [(2a), 4-methoxy-3-[3-[3-(2-cyanoethenyl)phenyl]-1-oxo-2-propenyl]-6-methyl-2H-pyran-2-one] | ≥ 70
3 | C#CCOc1cccc(C=CC(=O)c2c(OCC=C)cc(C)oc2=O)c1 [(2b), 4-allyloxy-3-[3-(3-propargyloxyphenyl)-1-oxo-2-propenyl]-6-methyl-2H-pyran-2-one] | ≥ 70
4 | C=CCOc1cccc(C=CC(=O)c2c(OC)cc(C)oc2=O)c1 [(5a), 4-methoxy-3-[3-(3-allyloxyphenyl)-1-oxo-2-propenyl]-6-methyl-2H-pyran-2-one] | ≥ 70
5 | C#CCOc1cccc(C=CC(=O)c2c(O)cc(C)oc2=O)c1 [(7a), 4-hydroxy-3-[3-(3-propargyloxyphenyl)-1-oxo-2-propenyl]-6-methyl-2H-pyran-2-one] | ≥ 70
6 | C#CCOc1ccc(C=CC(=O)c2c(OC)cc(C)oc2=O)cc1 [(10a), 4-methoxy-3-[3-(4-propargyloxyphenyl)-1-oxo-2-propenyl]-6-methyl-2H-pyran-2-one] | ≥ 70
7 | CSCCOc1cccc(C=CC(=O)c2c(N3CCCCC3)cc(C)oc2=O)c1 [(14b), 4-piperidino-3-[3-[3-(2-methylthioethoxy)phenyl]-1-oxo-2-propenyl]-6-methyl-2H-pyran-2-one] | ≥ 70
8 | N#CCOc1cccc(C=CC(=O)c2c(O)c3ccccc3oc2=O)c1 [(14d), 4-hydroxy-3-[3-[3-(cyanomethoxy)phenyl]-1-oxo-2-propenyl]-2H-1-benzopyran-2-one] | ≥ 70
9 | COc1cc(C)oc(=O)c1C(=O)C=Cc1cccc(OCC#N)c1 [(15a), 4-methoxy-3-[3-[3-(cyanomethoxy)phenyl]-1-oxo-2-propenyl]-6-methyl-2H-pyran-2-one] | ≥ 70
10 | COc1c(C(=O)C=Cc2cccc(OCC#N)c2)c(=O)oc2ccccc12 [(15d), 4-methoxy-3-[3-[3-(cyanomethoxy)phenyl]-1-oxo-2-propenyl]-2H-1-benzopyran-2-one] | ≥ 70
11 | COC(=O)CNC(=O)c1cccc(C=CC(=O)c2c(N3CCCCC3)cc(C)oc2=O)c1 [(16b), 4-piperidino-3-[3-[3-[[(methoxycarbonylmethyl)amino]carbonyl]phenyl]-1-oxo-2-propenyl]-6-methyl-2H-pyran-2-one] | ≥ 70
12 | COCC(=O)Nc1cccc(C=CC(=O)c2c(N3CCCCC3)c3ccccc3oc2=O)c1 [(17e), 4-piperidino-3-[3-[3-(methoxyacetylamino)phenyl]-1-oxo-2-propenyl]-2H-1-benzopyran-2-one] | ≥ 70
13 | COCCOC(=O)Nc1cccc(C=CC(=O)c2c(N3CCCCC3)c3ccccc3oc2=O)c1 [(18e), 4-piperidino-3-[3-[3-[(2-methoxyethoxy)carbonylamino]phenyl]-1-oxo-2-propenyl]-2H-1-benzopyran-2-one] | ≥ 70
14 | C#CCNc1cc(C)oc(=O)c1C(=O)C=Cc1cccc(C=CC#N)c1 [(20b), 4-propargylamino-3-[3-[3-(2-cyanoethenyl)phenyl]-1-oxo-2-propenyl]-6-methyl-2H-pyran-2-one] | ≥ 70
15 | COCC(=O)Nc1cccc(C=CC(=O)c2c(OC)cc(C)oc2=O)c1 [(22a), 4-methoxy-3-[3-[3-(methoxyacetylamino)phenyl]-1-oxo-2-propenyl]-6-methyl-2H-pyran-2-one] | ≥ 70
16 | COCCOC(=O)Nc1cccc(C=CC(=O)c2c(O)cc(C)oc2=O)c1 [(24a), 4-hydroxy-3-[3-[3-[(2-methoxyethoxy)carbonylamino]phenyl]-1-oxo-2-propenyl]-6-methyl-2H-pyran-2-one] | ≥ 70
17 | COCCOC(=O)Nc1cccc(C=CC(=O)c2c(O)c3ccccc3oc2=O)c1 [(24d), 4-hydroxy-3-[3-[3-[(2-methoxyethoxy)carbonylamino]phenyl]-1-oxo-2-propenyl]-2H-1-benzopyran-2-one] | ≥ 70
18 | COCCOC(=O)Nc1cccc(C=CC(=O)c2c(OC)cc(C)oc2=O)c1 [(25a), 4-methoxy-3-[3-[3-[(2-methoxyethoxy)carbonylamino]phenyl]-1-oxo-2-propenyl]-6-methyl-2H-pyran-2-one] | ≥ 70
19 | COCCOC(=O)Nc1cccc(C=CC(=O)c2c(OC)c3ccccc3oc2=O)c1 [(25d), 4-methoxy-3-[3-[3-[(2-methoxyethoxy)carbonylamino]phenyl]-1-oxo-2-propenyl]-2H-1-benzopyran-2-one] | ≥ 70
20 | Cc1cc(O)c(C(=O)C=Cc2ccc(C(=O)NCCO)cc2)c(=O)o1 [(32d), 4-hydroxy-3-[3-[4-[(2-hydroxyethyl)aminocarbonyl]phenyl]-1-oxo-2-propenyl]-6-methyl-2H-pyran-2-one] | ≥ 70
21 | COCCNC(=O)c1ccc(C=CC(=O)c2c(O)cc(C)oc2=O)cc1 [(36a), 4-hydroxy-3-[3-[4-[(2-methoxyethyl)aminocarbonyl]phenyl]-1-oxo-2-propenyl]-6-methyl-2H-pyran-2-one] | ≥ 70
22 | COCC(=O)Nc1cccc(C=CC(=O)c2c(OC)c3ccccc3oc2=O)c1 [Compound (22d), 4-methoxy-3-[3-[3-(methoxyacetylamino)phenyl]-1-oxo-2-propenyl]-2H-1-benzopyran-2-one] | ≥ 70
